Experimental data published in patent publication US20220128542A1, “TREATMENT EFFICIENCY EVALUATION” (TX MEDIC AB, priority 2019, published 2022).
Marks after values point to notes of the source that are not given here.

Test system: brain of rats subjected to severe traumatic brain injury (sTBI)
Assay: HPLC of purine-pyrimidine metabolites (energy state, oxidative/nitrosative stress) in brain after sTBI (Example 1)
Assay type: in vivo, rat
Conditions: sacrifice day 7
Protocol: They were divided into three groups:
1) n=6 animals subjected to sTBI, with drug administration after 30 minutes and sacrifice at 2 days post-TBI (Acute phase 1)
2) n=6 animals subjected to sTBI, with drug administration after 30 minutes and sacrifice at 7 days post-TBI (Acute phase 2).
3) n=6 animals subjected to sTBI, with drug administration after 3 days and sacrifice at 7 days post-TBI (Chronic phase).
The drug treatment was a subcutaneous injection of 0.5 ml of LMW-DS (15 mg/kg) and administered according to the aforementioned schematic protocol.
After the wet weight (w.w.) determination, tissue preparation was affected as previously disclosed (Tavazzi et al., Neurosurgery. 2005; 56: 582-589; Vagnozzi et al., Neurosurgery. 2007; 61: 379-388; Tavazzi et al., Neurosurgery. 2007; 61: 390-395; Amorini et al., J Cell Mol Med. 2017; 21: 530-542.). Briefly, whole brain homogenization was performed with 7 ml of ice-cold, nitrogen-saturated, precipitating solution composed by CH3CN+10 mM KH2PO4, pH 7.40, (3:1; v:v), and using an Ultra-Turrax set at 24,000 rpm/min (Janke & Kunkel, Staufen, Germany). After centrifugation at 20,690×g, for 10 min at 4° C., the clear supernatants were saved, pellets were supplemented with 3 ml of the precipitating solution and homogenized again as described above. A second centrifugation was performed (20,690×g, for 10 min at 4° C.), pellets were saved, supernatants combined with those previously obtained, extracted by vigorous agitation with a double volume of HPLC-grade CHCl3 and centrifuged as above. The upper aqueous phases containing water-soluble low-molecular weight compounds were collected, subjected to chloroform washings for two more times (this procedure allowed the removal of all the organic solvent and of any lipid soluble compound from the buffered tissue extracts), adjusted in volumes with 10 mM KH2PO4, pH 7.40, to have ultimately aqueous 10% tissue homogenates and saved at −80° C. until assayed.
Aliquots of each deproteinized tissue samples were filtered through a 0.45 μm HV Millipore filter and loaded (200 μl) onto a Hypersil C-18, 250×4.6 mm, 5 μm particle size column, provided with its own guard column (Thermo Fisher Scientific, Rodano, Milan, Italy) and connected to an HPLC apparatus consisting of a Surveyor System (Thermo Fisher Scientific, Rodano, Milan, Italy) with a highly sensitive diode array detector (equipped with a 5 cm light path flow cell) and set up between 200 and 300 nm wavelength. Data acquisition and analysis were performed by a PC using the ChromQuest® software package provided by the HPLC manufacturer.
Metabolites belonging to the purine-pyrimidine profiles (listed below) and related to tissue energy state, mitochondrial function and relative to oxidative-nitrosative stresses were separated, in a single chromatographic run, according to slight modifications of existing ion-pairing HPLC methods (Lazzarino et al., Anal Biochem. 2003; 322: 51-59; Tavazzi et al., Clin Biochem. 2005; 38: 997-1008). Assignment and calculation of the compounds of interest in chromatographic runs of tissue extracts were carried out at the proper wavelengths (206, 234 and 260 nm) by comparing retention times, absorption spectra and areas of peaks with those of peaks of chromatographic runs of freshly-prepared ultra-pure standard mixtures with known concentrations. […]

[1] = Acute phase 2: 15 mg/kg s.c. 30 min post-sTBI
[2] = Chronic phase: 15 mg/kg s.c. 3 days post-sTBI

**Q.** Which NO2 brain concentration [1] does the source give for sodium salt of dextran sulfate [LMW-DS] here?
**A.** 226.40 ± 30.95^b nmol/g (w.w.)

**Q.** And the NO3 brain concentration [1]?
**A.** 198.56 ± 25.93^e, i nmol/g (w.w.)

**Q.** What about the UDP brain concentration [1] of the same substance?
**A.** 40.38 ± 8.50^a, i nmol/g (w.w.)

**Q.** And the UDP-Gal brain concentration [1]?
**A.** 145.14 ± 27.76 nmol/g (w.w.)

**Q.** And the UDP-GalNac brain concentration [1]?
**A.** 19.90 ± 3.12^a, e nmol/g (w.w.)

**Q.** What about the UDP-Glc brain concentration [1] of the same substance?
**A.** 44.44 ± 7.59^j nmol/g (w.w.)

**Q.** And the UDP-GlcNac brain concentration [1]?
**A.** 130.65 ± 28.41^a nmol/g (w.w.)

**Q.** And the UMP brain concentration [1]?
**A.** 138.73 ± 32.01^b nmol/g (w.w.)

**Q.** What about the UTP brain concentration [1] of the same substance?
**A.** 146.71 ± 32.68^e nmol/g (w.w.)

**Q.** And the acetyl-CoA brain concentration [1]?
**A.** 36.86 ± 4.11^e nmol/g (w.w.)

**Q.** What about the adenine brain concentration [1] of the same substance?
**A.** 58.16 ± 6.36^a, f nmol/g (w.w.)

**Q.** What about the “ascorbic acid brain concentration” value [1] of the same substance?
**A.** 3512.58 ± 224.62^a, e nmol/g (w.w.)

**Q.** And the creatinine brain concentration [1]?
**A.** 37.27 ± 5.82^a, e, j nmol/g (w.w.)

**Q.** What about the cytidine brain concentration [1] of the same substance?
**A.** 16.18 ± 4.21^e nmol/g (w.w.)

**Q.** What about the cytosine brain concentration [1] of the same substance?
**A.** 15.70 ± 4.10^f nmol/g (w.w.)

**Q.** And the guanine brain concentration [1]?
**A.** 4.73 ± 1.07 nmol/g (w.w.)

**Q.** What about the guanosine brain concentration [1] of the same substance?
**A.** 17.90 ± 3.24^j nmol/g (w.w.)

**Q.** And the hypoxanthine brain concentration [1]?
**A.** 12.90 ± 2.58^a, j nmol/g (w.w.)

**Q.** What about the inosine brain concentration [1] of the same substance?
**A.** 85.52 ± 20.36^e nmol/g (w.w.)

**Q.** What about the malonyl-CoA brain concentration [1] of the same substance?
**A.** 11.29 ± 2.27^b nmol/g (w.w.)

**Q.** And the “orotic acid brain concentration” value [1]?
**A.** 13.34 ± 3.65^a nmol/g (w.w.)

**Q.** What about the thymidine brain concentration [1] of the same substance?
**A.** 0.49 ± 0.20^f nmol/g (w.w.)

**Q.** What about the uracil brain concentration [1] of the same substance?
**A.** 19.40 ± 7.52^a, e nmol/g (w.w.)

**Q.** And the “uric acid brain concentration” value [1]?
**A.** 19.17 ± 2.15^a, h, i nmol/g (w.w.)

**Q.** And the uridine brain concentration [1]?
**A.** 63.02 ± 9.66^b, e nmol/g (w.w.)

**Q.** What about the xanthine brain concentration [1] of the same substance?
**A.** 10.41 ± 2.11^f nmol/g (w.w.)

**Q.** And the β-pseudouridine brain concentration [1]?
**A.** 13.26 ± 3.16^a, e, j nmol/g (w.w.)

**Q.** And the ADO brain concentration [2]?
**A.** 89.97 ± 12.98^a nmol/g (w.w.)

**Q.** What about the ADP brain concentration [2] of the same substance?
**A.** 315.53 ± 46.53^a nmol/g (w.w.)

**Q.** What about the ADP-ribose brain concentration [2] of the same substance?
**A.** 173.94 ± 8.45^a nmol/g (w.w.)

**Q.** What about the AMP brain concentration [2] of the same substance?
**A.** 90.01 ± 21.24^a nmol/g (w.w.)

**Q.** And the ATP brain concentration [2]?
**A.** 1381.03 ± 212.64^a nmol/g (w.w.)

**Q.** And the CDP brain concentration [2]?
**A.** 23.55 ± 6.45^a nmol/g (w.w.)

**Q.** And the “CDP choline brain concentration” value [2]?
**A.** 8.37 ± 2.19 nmol/g (w.w.)

**Q.** What about the CMP brain concentration [2] of the same substance?
**A.** 20.51 ± 3.73^a, f nmol/g (w.w.)

**Q.** What about the CTP brain concentration [2] of the same substance?
**A.** 25.23 ± 2.93^a, f nmol/g (w.w.)

**Q.** And the CoA-SH brain concentration [2]?
**A.** 27.58 ± 6.24^f nmol/g (w.w.)

**Q.** What about the GDP brain concentration [2] of the same substance?
**A.** 173.05 ± 28.68^a, e nmol/g (w.w.)

**Q.** What about the “GDP glucose brain concentration” value [2] of the same substance?
**A.** 43.85 ± 5.06^b nmol/g (w.w.)

**Q.** What about the GMP brain concentration [2] of the same substance?
**A.** 148.56 ± 31.21^a nmol/g (w.w.)

**Q.** And the GSH brain concentration [2]?
**A.** 2608.67 ± 358.07^a, e nmol/g (w.w.)

**Q.** What about the GSSG brain concentration [2] of the same substance?
**A.** 231.08 ± 44.34^b, f nmol/g (w.w.)

**Q.** What about the GTP brain concentration [2] of the same substance?
**A.** 290.92 ± 34.68^a, f nmol/g (w.w.)

**Q.** And the IMP brain concentration [2]?
**A.** 99.29 ± 13.82^a nmol/g (w.w.)

**Q.** And the MDA brain concentration [2]?
**A.** 11.62 ± 3.90^a, e nmol/g (w.w.)

**Q.** And the NAA brain concentration [2]?
**A.** 6375.36 ± 974.12^a, e nmol/g (w.w.)

**Q.** And the NADH brain concentration [2]?
**A.** 11.78 ± 3.32^e nmol/g (w.w.)

**Q.** And the NADPH brain concentration [2]?
**A.** 7.34 ± 2.65^f nmol/g (w.w.)

**Q.** And the “NADP^+ brain concentration” value [2]?
**A.** 16.44 ± 2.66^a, f nmol/g (w.w.)

**Q.** What about the “NAD^+ brain concentration” value [2] of the same substance?
**A.** 301.13 ± 29.90^a nmol/g (w.w.)

**Q.** What about the NO2 brain concentration [2] of the same substance?
**A.** 217.67 ± 55.04^a nmol/g (w.w.)

**Q.** What about the NO3 brain concentration [2] of the same substance?
**A.** 241.27 ± 18.84^e nmol/g (w.w.)

**Q.** And the UDP brain concentration [2]?
**A.** 57.40 ± 5.88^a, f nmol/g (w.w.)

**Q.** And the UDP-Gal brain concentration [2]?
**A.** 122.29 ± 12.15 nmol/g (w.w.)

**Q.** And the UDP-GalNac brain concentration [2]?
**A.** 21.84 ± 2.80^a, e nmol/g (w.w.)

**Q.** What about the UDP-Glc brain concentration [2] of the same substance?
**A.** 35.79 ± 3.45^b nmol/g (w.w.)

**Q.** And the UDP-GlcNac brain concentration [2]?
**A.** 129.42 ± 15.88^b nmol/g (w.w.)

**Q.** And the UMP brain concentration [2]?
**A.** 103.11 ± 29.79 nmol/g (w.w.)

**Q.** And the UTP brain concentration [2]?
**A.** 136.80 ± 33.25^f nmol/g (w.w.)

**Q.** And the acetyl-CoA brain concentration [2]?
**A.** 35.68 ± 6.55^e nmol/g (w.w.)

**Q.** And the adenine brain concentration [2]?
**A.** 52.94 ± 8.59^a, f nmol/g (w.w.)

**Q.** What about the “ascorbic acid brain concentration” value [2] of the same substance?
**A.** 3375.03 ± 856.41^a, e nmol/g (w.w.)

**Q.** What about the creatinine brain concentration [2] of the same substance?
**A.** 51.25 ± 10.17^a, f nmol/g (w.w.)

**Q.** And the cytidine brain concentration [2]?
**A.** 14.71 ± 2.83^e nmol/g (w.w.)

**Q.** What about the cytosine brain concentration [2] of the same substance?
**A.** 15.58 ± 2.50^b, f nmol/g (w.w.)

**Q.** What about the guanine brain concentration [2] of the same substance?
**A.** 5.31 ± 1.04^b nmol/g (w.w.)

**Q.** What about the guanosine brain concentration [2] of the same substance?
**A.** 28.87 ± 7.60^a, f nmol/g (w.w.)

**Q.** What about the hypoxanthine brain concentration [2] of the same substance?
**A.** 17.97 ± 4.49^a nmol/g (w.w.)

**Q.** What about the inosine brain concentration [2] of the same substance?
**A.** 105.81 ± 25.57^f nmol/g (w.w.)

**Q.** And the malonyl-CoA brain concentration [2]?
**A.** 10.00 ± 1.95^b nmol/g (w.w.)

**Q.** And the “orotic acid brain concentration” value [2]?
**A.** 12.05 ± 1.50^a nmol/g (w.w.)

**Q.** And the thymidine brain concentration [2]?
**A.** 0.71 ± 0.11 nmol/g (w.w.)

**Q.** What about the uracil brain concentration [2] of the same substance?
**A.** 16.57 ± 2.99^a, f nmol/g (w.w.)

**Q.** What about the “uric acid brain concentration” value [2] of the same substance?
**A.** 27.77 ± 3.60^a nmol/g (w.w.)

**Q.** And the uridine brain concentration [2]?
**A.** 63.28 ± 3.37^f nmol/g (w.w.)

**Q.** What about the xanthine brain concentration [2] of the same substance?
**A.** 9.35 ± 0.83^f nmol/g (w.w.)

**Q.** What about the β-pseudouridine brain concentration [2] of the same substance?
**A.** 18.62 ± 2.80^a nmol/g (w.w.)
